According to patent US20070259837A1, “Use of Non-Glucocorticoid Steroids for the Treatment of Muscular Dystrophy” (SANTHERA PHARMACEUTICALS (SCHWEIZ) AG, priority 2004, published 2007):
Like-named read-outs stand apart in the source and are kept apart here.

System: utrophin protein in human muscle cells derived from DMD patients
Assay: Cell-based ELISA for normalized utrophin protein level in primary human myotube cultures
Conditions: for % UTR vs. PDN (normalized utrophin protein as % of PDN-treated sister cultures): same experiment; for activity at 0.5 µM: Myotube, read-out: % UTR vs. DMSO (normalized utrophin protein over DMSO-solvent treated control)
Experimental: The method used to detect and determine utrophin-inducing activity of non-glucocorticoid steroids has been described previously (Courdier-Fruh, I., Barman, L., Briguet, A. & Meier, T.; 2002, Neuromuscul. Disord.; 12 Suppl:S95). Briefly, primary human muscle cell cultures were prepared according to standard protocols (Askanas V, Kwan H, Alvarez R B, Engel W K, Kobayashi T, Martinuzzi A, Hawkins E F., 1987, J Neurocytol., 16:523-537). Test compounds and the glucocorticoid 6α-methylprednisolone-21 sodium succinate (Pharmacia & Upjohn; Solu-Medrol®, PDN) as reference compound were applied at 500 nM final concentration as soon as myoblasts started to differentiate into myotubes. Incubation with the test compound was ended as soon as well differentiated myotubes have formed, typically resulting in an incubation time with a test compound for 3-7 days.
Normalized concentrations of utrophin protein in human muscle cells cultured in microtiter plates were determined by a cell-based enzyme-linked immunosorbent assay (ELISA) procedure that allows a successive readout for the cell density and utrophin protein level. For calibration, the cell density and differentiation was determined by absorbance measurements of the total dehydrogenase enzyme activity in each well using the colorimetric CellTiter 96®AQ One Solution Reagent Proliferation Assay (Promega) according to the manufacturer's recommendation. Subsequently, cells were fixed, washed, permeabilized with 0.5% (v/v) Triton X-100 and unspecific antibody binding-sites were blocked by standard procedures. Utrophin protein levels were determined immunologically with utrophin-specific primary antibodies (mouse monoclonal antibody to the amino terminal portion of utrophin, NCL-DRP2, Novocastra Laboratories) and with appropriate peroxidase-coupled secondary antibodies using QuantaBlu™ Fluorogenic Peroxidase Substrate Kit (Pierce) for detection. Fluorescence measurements were carried out with a multilabel counter (Wallac) at λex=325 nm and at λem=420 nm. The primary readout of this signal is presented in arbitrary units. For calibration, the arbitrary units representing the relative utrophin protein content of each well were divided by the corresponding cell-titer absorbance value to correct for cell density. For comparison between experiments, the cell-titer corrected readout for utrophin protein content in each well was expressed in percent of solvent treated control cultures (set to 100%). PDN was included in all experiments as reference glucocorticoid, N=3-5 for each compound tested.
Non-glucocorticoid test compounds, applied in a concentration of 500 nM, were regarded as “positive” in case the increase in the level of utrophin protein was at least 20% (mean value) over control cultures treated with the appropriate dilution of DMSO solvent as control and containing no test compound.
A range of different pharmaceutical compounds were tested for their ability to increase levels of utrophin protein in primary human myotube cultures. The cell-based ELISA protocol used to detect the level of utrophin protein is provided above and described in Courdier-Fruh, I., Barman, L., Briguet, A. & Meier, T, 2002, Neuromuscul. Disord.: 12, Suppl:S95. Briefly, fixed and permeabilized human muscle cells derived from DMD patients and cultured in 96-well cell culture plates were incubated with antibodies specific for utrophin at a dilution of 1:1'000 in blocking solution (phosphate buffered saline (PBS) supplemented with 2% fetal calf serum and 1% bovine serum albumin) for 10-15 hours at 4° C. Following several washing steps with 0.1% Triton X-100 in PBS, peroxidase-coupled secondary antibodies diluted 1:3'000 in blocking solution were applied in each well for 1-2 hours at room temperature. Signal detection, data acquisition and normalization was performed as described above and in Courdier-Fruh, I., Barman, L., Briguet, A. & Meier, T, 2002, Neuromuscul. Disord.: 12, Suppl:S95. […]

[1] = 500 nM compound, human muscle cultures, mean value, N=3-6

Row | SMILES | % UTR vs. PDN (normalized utrophin protein as % of PDN-treated sister cultures) [1] [%] | activity at 0.5 µM (Homo sapiens) [%] | activity at 0.5 µM [1] [%]
1 | CC(C)CCCC(C)[C@H]1CCC2C3CC[C@H]4C[C@H](O)CC[C@]4(C)C3CC[C@@]21C (stereo partly shown) [Example 34] | 97 | 125 | 
2 | CC(C)CCCC(C)[C@H]1CCC2C3C[C@@H](O)[C@@]4(O)C[C@@H](O)CC[C@]4(C)C3CC[C@@]21C (stereo partly shown) [Example 35] | 94 | 122 | 
3 | CC(C)C/C=C\C(C)[C@H]1CC[C@@]2(C)C3=CC=C4C(C)(C)[C@@H](O)CC[C@]4(C)C3CC[C@]12C (stereo partly shown) [Example 36] | 96 | 122 | 
4 | CC(C)=CCCC(C)[C@H]1CC[C@@]2(C)C3=C(CC[C@]12C)[C@@]1(C)CC[C@H](O)C(C)(C)C1CC3 (stereo partly shown) [Example 37, Lanosterol] | 102 | 123 | 
5 | C[C@]12CCC3C(CC[C@H]4C[C@@H](OC(=O)c5ccccc5)CC[C@]34C)C1CC[C@@H]2OC(=O)c1ccccc1 (stereo partly shown) [Example 38] | 108 | 126 | 
6 | C[C@]12CC[C@H](OC(=O)c3ccccc3)CC1=CCC1C2CC[C@@]2(C)C1CC[C@@H]2NC(=O)c1ccccc1 (stereo partly shown) [Example 39] | 106 | 121 | 
7 | C#C[C@]1(O)CCC2C3CCC4=CC(=O)CC[C@@H]4C3CC[C@@]21CC (stereo partly shown) [Example 41, Norgestrel] | 103 |  | 130
8 | C#C[C@]1(OC(C)=O)CC[C@H]2[C@@H]3CCC4=CC(=O)CC[C@@H]4[C@H]3CC[C@@]21C [Example 42, Norethisterone acetate] | 101 |  | 128
9 | CCC(=O)O[C@H]1CC[C@]2(C)C3CC[C@]4(C)C(=O)CCC4C3CC[C@H]2C1 (stereo partly shown) [Example 43] | 99 | 128 | 
10 | CC(=O)OC1CCC2C3CC[C@H]4C[C@H](O)CC[C@]4(C)C3CC[C@]12C (stereo partly shown) [Example 44] | 99 | 129 | 
11 | C#C[C@]1(OC(C)=O)CCC2C3CCC4=C[C@@H](OC(C)=O)CC[C@@H]4C3CC[C@@]21C (stereo partly shown) [Example 45] | 99 |  | 130
12 | C[C@]12CCC3C(CC[C@H]4C[C@@H](OC(=O)c5ccccc5)CC[C@]34C)C1CC(=O)C2 (stereo partly shown) [Example 46] | 112 | 131 | 
13 | C[C@@]12C=CCC1C1CC[C@H]3C[C@H](O)CC[C@]3(C)C1CC2 (stereo partly shown) [Example 47] | 98 | 127 | 
14 | CCC(=O)O[C@H]1CCC2C3CCC4=CC(=O)CC[C@]4(C)C3CC[C@@]21C (stereo partly shown) [Example 48, Testosterone propionate] | 98 | 122 | 
15 | C[C@]12CC(=O)C3C(CC[C@H]4C[C@@H](O)CC[C@]34C)C1CCC2=O (stereo partly shown) [Example 49] | 97 | 127 | 
16 | C[C@]12CC[C@H](Cl)CC1=CCC1C2CC[C@]2(C)C(=O)CCC12 (stereo partly shown) [Example 50] | 98 | 123 | 
17 | C[C@]12C=CC(=O)C=C1CCC1C2=CC[C@]2(C)C(C(=O)CN3CCN(c4cc(N5CCCC5)nc(N5CCCC5)n4)CC3)CCC12.O=C(O)/C=C\C(=O)O (stereo partly shown) [Example 51] | 113 | 143 | 
18 | CC(=O)OCC(=O)[C@H]1CCC2C3CC[C@@H]4C[C@H](OC(C)=O)CC[C@]4(C)C3[C@@H](O)C[C@@]21C (stereo partly shown) [Example 52] | 112 | 145 | 

Row | SMILES | % UTR vs. PDN (normalized utrophin protein as % of PDN-treated sister cultures) [1] [%] | activity at 0.5 µM (Homo sapiens) [%] | activity at 0.5 µM [1] [%]
19 | C[C@]12CCC(=O)C=C1CC[C@@H]1[C@@H]2CC[C@@]2(C)[C@H]1CC[C@]2(O)C(=O)CO [Example 53, Cortexolone] | 111 |  | 146
20 | CC(=O)O[C@@]1(C(C)=O)CCC2C3C[C@H](C)C4=CC(=O)CC[C@]4(C)C3CC[C@@]21C (stereo partly shown) [Example 54] | 106 |  | 135
21 | CC(=O)O[C@H]1CC[C@]2(C)C3=CC[C@]4(C)C(C(C)=O)=CCC4C3CC[C@H]2C1 (stereo partly shown) [Example 55] | 107 | 125 | 
22 | CC(=O)[C@@]12O[C@@H]1CC1C3CC=C4C[C@@H](O)CC[C@]4(C)C3CC[C@@]12C (stereo partly shown) [Example 56] | 105 | 137 | 
23 | CC(=O)[C@H]1CCC2C3CCC4=CC(=O)CC[C@]4(C)C3[C@H](OC(=O)c3ccccc3)C[C@@]21C (stereo partly shown) [Example 57] | 104 | 120 | 
24 | CC(=O)[C@H]1CCC2C3CCC4=CC(=O)CC[C@]4(C)C3[C@H](O)C[C@@]21C (stereo partly shown) [Example 58] | 102 | 133 | 
25 | CC(=O)OCC(=O)C1=CCC2C3CC[C@H]4C[C@@H](OC(C)=O)CC[C@]4(C)C3CC[C@]12C (stereo partly shown) [Example 59] | 102 | 121 | 
26 | CC(=O)O[C@H]1CC[C@]2(C)C3CC[C@]4(C)C(C(C)=O)=CCC4C3CC[C@H]2C1 (stereo partly shown) [Example 60] | 101 | 127 | 
27 | CC(=O)[C@@]12O[C@@H]1CC1C3CC(C)=C4C[C@@H](O)CC[C@]4(C)C3CC[C@@]12C (stereo partly shown) [Example 61] | 100 | 130 | 
28 | CC(=O)C1CCC2C3CC[C@H]4C[C@@H](O)CC[C@]4(C)C3CC[C@]12C (stereo partly shown) [Example 62] | 99 | 129 | 
29 | CC(=O)OCC(=O)[C@@]1(O)CCC2C3CCC4=CC(=O)CC[C@]4(C)C3CC[C@@]21C (stereo partly shown) [Example 63, Cortexolone 21-acetate] | 99 | 129 | 
30 | CC(=O)C1CCC2C3C[C@@H]4O[C@@]45C[C@@H](O)CC[C@]5(C)C3CC[C@]12C (stereo partly shown) [Example 64] | 97 | 127 | 
31 | CC(=O)C1CCC2C3CC[C@H]4C[C@H](O)CC[C@]4(C)C3C[C@H](O)[C@]12C (stereo partly shown) [Example 65] | 97 | 121 | 
32 | CC(=O)[C@@]1(O)CCC2C3CCC4=CC(=O)CC[C@]4(C)C3CC[C@@]21C (stereo partly shown) [Example 66] | 97 |  | 127
33 | CC(=O)OCC(=O)[C@H]1CCC2C3CCC4=CC(=O)CC[C@]4(C)C3CC[C@@]21C (stereo partly shown) [Example 67] | 96 |  | 120
34 | CC(=O)OCC(=O)[C@@]12O[C@@H]1CC1C3CC[C@@H]4C[C@H](O)CC[C@]4(C)C3CC[C@@]12C (stereo partly shown) [Example 68] | 95 | 125 | 
35 | C[C@]12C[C@H](O)C3C(CC[C@@H]4C[C@H](O)CC[C@]34C)C1CCC2C(=O)CO (stereo partly shown) [Example 69] | 95 | 123 | 
